Laboratory results as given in ChEMBL document CHEMBL1201862, “PubChem BioAssay data set” (2004).
The source made the active and inactive calls.

Experiments:
[1] = molecular target: Photoreceptor-specific nuclear receptor (Homo sapiens, UniProt Q9Y5X4); assay: NR2E3 inverse agonists, dose response, biochemical, TR-FRET (AID 463256); assay type: functional
[2] = molecular target: Peroxisome proliferator-activated receptor gamma/Nuclear receptor corepressor 2 (Homo sapiens, UniProt P37231+Q9Y618); assay: Counterscreen for NR2E3 inverse agonists: TR-FRET-based biochemical high throughput dose response assay to identify inverse agonists of the interaction between peroxisome proliferator-activated receptor gamma (PPARg) and nuclear receptor co-repressor 2 (NCOR2).; assay type: functional
Sequence of Peroxisome proliferator-activated receptor gamma/Nuclear receptor corepressor 2 (P37231 whole entry): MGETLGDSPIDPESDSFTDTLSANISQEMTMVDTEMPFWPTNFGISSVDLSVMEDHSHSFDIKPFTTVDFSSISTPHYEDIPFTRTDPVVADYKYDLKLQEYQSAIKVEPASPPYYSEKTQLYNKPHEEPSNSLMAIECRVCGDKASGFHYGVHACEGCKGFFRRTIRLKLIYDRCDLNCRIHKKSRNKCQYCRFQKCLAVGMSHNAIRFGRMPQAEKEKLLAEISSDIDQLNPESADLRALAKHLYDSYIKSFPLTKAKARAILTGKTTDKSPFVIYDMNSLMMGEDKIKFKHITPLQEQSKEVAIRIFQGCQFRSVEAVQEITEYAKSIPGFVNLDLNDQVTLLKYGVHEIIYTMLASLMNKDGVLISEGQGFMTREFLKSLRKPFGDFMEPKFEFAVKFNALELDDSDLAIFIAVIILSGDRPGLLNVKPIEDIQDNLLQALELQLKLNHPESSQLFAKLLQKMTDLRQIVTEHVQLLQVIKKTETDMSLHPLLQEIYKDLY
Sequence of Peroxisome proliferator-activated receptor gamma/Nuclear receptor corepressor 2 (Q9Y618 whole entry): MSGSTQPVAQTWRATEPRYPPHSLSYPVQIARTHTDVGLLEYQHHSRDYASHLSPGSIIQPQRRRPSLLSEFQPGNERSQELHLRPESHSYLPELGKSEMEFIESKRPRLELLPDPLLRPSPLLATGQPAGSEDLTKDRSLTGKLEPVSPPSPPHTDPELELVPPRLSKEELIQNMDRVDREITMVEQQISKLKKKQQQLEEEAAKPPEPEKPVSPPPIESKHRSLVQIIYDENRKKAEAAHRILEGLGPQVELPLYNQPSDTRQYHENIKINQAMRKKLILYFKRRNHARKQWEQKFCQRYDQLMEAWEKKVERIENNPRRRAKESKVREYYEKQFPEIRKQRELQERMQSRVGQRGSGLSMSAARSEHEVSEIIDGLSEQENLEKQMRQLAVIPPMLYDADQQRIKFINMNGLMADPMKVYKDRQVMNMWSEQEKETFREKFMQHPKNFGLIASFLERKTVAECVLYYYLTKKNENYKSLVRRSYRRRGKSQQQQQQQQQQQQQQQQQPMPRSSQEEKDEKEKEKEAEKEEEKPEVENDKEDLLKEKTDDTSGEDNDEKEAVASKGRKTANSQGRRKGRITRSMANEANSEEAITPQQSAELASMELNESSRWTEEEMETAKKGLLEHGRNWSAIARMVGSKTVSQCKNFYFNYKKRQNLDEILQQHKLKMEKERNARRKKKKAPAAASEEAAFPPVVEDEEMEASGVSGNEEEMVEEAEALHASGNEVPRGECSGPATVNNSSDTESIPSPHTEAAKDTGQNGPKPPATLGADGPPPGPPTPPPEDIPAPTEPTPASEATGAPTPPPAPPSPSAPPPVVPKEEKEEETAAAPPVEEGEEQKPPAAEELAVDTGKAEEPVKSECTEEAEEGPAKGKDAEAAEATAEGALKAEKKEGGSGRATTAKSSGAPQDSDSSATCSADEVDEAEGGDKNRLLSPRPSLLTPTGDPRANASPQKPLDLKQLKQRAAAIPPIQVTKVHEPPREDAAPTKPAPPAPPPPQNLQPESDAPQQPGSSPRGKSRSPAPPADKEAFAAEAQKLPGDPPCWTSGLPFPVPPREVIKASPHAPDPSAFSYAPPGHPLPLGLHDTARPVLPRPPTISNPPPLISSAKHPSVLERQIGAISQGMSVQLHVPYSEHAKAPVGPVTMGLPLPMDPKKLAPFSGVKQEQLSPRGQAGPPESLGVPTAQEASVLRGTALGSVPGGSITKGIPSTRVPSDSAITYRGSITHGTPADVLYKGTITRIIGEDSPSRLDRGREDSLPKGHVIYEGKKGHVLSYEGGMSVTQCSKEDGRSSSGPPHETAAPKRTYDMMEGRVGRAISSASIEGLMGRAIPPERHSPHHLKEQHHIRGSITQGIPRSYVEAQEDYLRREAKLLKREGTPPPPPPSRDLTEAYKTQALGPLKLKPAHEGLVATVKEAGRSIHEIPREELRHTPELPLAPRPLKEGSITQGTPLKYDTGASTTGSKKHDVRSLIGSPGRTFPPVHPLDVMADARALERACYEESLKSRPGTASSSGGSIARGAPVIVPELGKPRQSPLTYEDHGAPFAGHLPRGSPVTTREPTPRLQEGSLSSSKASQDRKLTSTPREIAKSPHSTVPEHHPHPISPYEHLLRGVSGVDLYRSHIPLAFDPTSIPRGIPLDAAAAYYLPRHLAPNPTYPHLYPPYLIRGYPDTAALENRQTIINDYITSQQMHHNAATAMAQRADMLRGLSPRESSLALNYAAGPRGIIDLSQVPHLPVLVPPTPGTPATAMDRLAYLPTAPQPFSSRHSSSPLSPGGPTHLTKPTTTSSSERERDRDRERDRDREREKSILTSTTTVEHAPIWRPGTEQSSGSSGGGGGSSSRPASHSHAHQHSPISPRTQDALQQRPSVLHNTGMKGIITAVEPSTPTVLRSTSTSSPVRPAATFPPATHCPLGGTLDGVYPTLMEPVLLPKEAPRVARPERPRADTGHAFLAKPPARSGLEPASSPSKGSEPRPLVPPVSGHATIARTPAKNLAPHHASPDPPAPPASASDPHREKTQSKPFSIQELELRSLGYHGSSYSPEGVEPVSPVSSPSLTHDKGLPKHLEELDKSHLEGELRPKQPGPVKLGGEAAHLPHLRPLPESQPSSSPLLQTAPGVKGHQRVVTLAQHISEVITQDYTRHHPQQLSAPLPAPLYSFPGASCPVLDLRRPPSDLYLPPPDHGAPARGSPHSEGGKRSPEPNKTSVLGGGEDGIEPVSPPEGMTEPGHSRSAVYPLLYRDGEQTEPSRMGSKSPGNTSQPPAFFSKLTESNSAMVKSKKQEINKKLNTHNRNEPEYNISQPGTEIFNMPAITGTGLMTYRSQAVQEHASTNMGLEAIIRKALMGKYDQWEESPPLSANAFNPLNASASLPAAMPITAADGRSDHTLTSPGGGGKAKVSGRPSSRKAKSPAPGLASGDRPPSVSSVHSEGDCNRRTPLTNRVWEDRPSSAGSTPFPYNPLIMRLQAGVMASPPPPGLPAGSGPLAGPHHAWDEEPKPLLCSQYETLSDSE

[3] = test system: Streptococcus; assay: Group A Streptococcus viability loss, dose response, counter-screen for streptokinase expression inhibitor project, luminescence, BacTiterGlo (AID 1915); assay type: functional, organism-based;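 also: potency for reduction of bacterial viability or growth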
[4] = molecular target: Voltage-gated inwardly rectifying potassium channel KCNH2 (Homo sapiens, UniProt Q12809); assay: hERG protection from proarrhythmic block, potency, dose response, cell-based, thallium flux (AID 2121); assay type: ADME
[5] = test system: Streptococcus sp. 'group A'; assay: growth inhibition of control SK(-) GAS strain, dose response, counter-screen for streptokinase expression inhibitor project, luminescence, kanamycin, BacTiterGlo, confirmation (AID 1900); assay type: functional, organism-based
[6] = molecular target: Tyrosyl-DNA phosphodiesterase 2 (Homo sapiens, UniProt O95551); assay: human TDP2 enzyme inhibitors, dose response, biochemical, epi absorbance, IC50 (AID 743297)
Sequence of Tyrosyl-DNA phosphodiesterase 2 (O95551 whole entry): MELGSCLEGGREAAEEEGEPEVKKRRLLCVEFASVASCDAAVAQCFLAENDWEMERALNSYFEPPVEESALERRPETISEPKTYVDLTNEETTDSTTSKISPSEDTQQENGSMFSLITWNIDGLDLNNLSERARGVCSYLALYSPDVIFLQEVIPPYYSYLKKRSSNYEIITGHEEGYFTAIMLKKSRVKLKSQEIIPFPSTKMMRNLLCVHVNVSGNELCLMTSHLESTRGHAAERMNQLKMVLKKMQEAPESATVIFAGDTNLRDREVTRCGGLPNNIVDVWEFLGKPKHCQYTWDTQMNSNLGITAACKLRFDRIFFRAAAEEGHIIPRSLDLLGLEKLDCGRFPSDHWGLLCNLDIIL

[7] = Late stage counterscreen results from the probe development effort to identify activators of signal transducer and activator of transcription 1 (STAT1): luminescence-based cell-based dose response assay to identify cytotoxic compounds.; assay type: functional
[8] = molecular target: Galanin receptor type 2 (Homo sapiens, UniProt O43603); assay: Dose Response cell-based high-throughput screening assay to identify antagonists of galanin receptor 2 (GALR2). [Related pubchem assays: 828, 866 ]; assay type: functional
[9] = M. tuberculosis growth inhibition, HTS (AID 449762); assay type: functional
[10] = molecular target: Procathepsin L (Homo sapiens, UniProt P07711); assay: cathepsin L inhibitors, dose response, counter-screen for M1/M17 aminopeptidase inhibitor project, biochemical, QFRET, 1536-well (AID 2214)
[11] = molecular target: Aspartyl aminopeptidase (Plasmodium falciparum 3D7, UniProt Q8I2J3); assay: Counterscreen for inhibitors of M1 and M17 aminopeptidases: QFRET-based biochemical high throughput dose response assay for inhibitors of the Plasmodium falciparum M18 Aspartyl Aminopeptidase (PFM18AAP). [Related PubChem assays: 1619 (Screening assay (M17LAP inhibitors).), 1445 (Screening assay (M1AAP inhibitors).)]
[12] = molecular target: T1, Leucine aminopeptidase (Plasmodium falciparum 3D7, UniProt Q8IL11); assay: P. falciparum M17LAP inhibitors, primary screen, biochemical, fluorogenic H-Leu-NHMec substrate, 1536-well (AID 1619); assay type: functional
T1 sequence (Q8IL11 whole entry): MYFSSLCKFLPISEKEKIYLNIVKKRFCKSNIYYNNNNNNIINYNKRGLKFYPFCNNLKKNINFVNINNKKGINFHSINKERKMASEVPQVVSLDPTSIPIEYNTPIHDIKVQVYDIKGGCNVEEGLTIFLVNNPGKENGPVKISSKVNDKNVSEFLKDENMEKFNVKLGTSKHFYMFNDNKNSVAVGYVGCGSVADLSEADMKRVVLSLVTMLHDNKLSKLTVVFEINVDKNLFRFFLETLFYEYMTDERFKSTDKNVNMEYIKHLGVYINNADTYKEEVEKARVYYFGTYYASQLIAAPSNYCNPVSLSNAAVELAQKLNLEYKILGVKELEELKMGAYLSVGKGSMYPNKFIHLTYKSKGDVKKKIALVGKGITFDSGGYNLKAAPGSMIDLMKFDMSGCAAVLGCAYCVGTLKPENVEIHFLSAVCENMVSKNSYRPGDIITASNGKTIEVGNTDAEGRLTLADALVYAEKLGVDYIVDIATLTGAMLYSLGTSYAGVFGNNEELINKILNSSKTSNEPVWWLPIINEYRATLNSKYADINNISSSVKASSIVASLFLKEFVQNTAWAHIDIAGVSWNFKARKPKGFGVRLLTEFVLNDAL

[13] = molecular target: 5-hydroxytryptamine receptor 1E (Homo sapiens, UniProt P28566); assay: Counterscreen assay for S1P3 antagonists: Dose response cell-based high throughput screening assay to identify antagonists of the 5-Hydroxytryptamine Receptor Subtype 1E (5HT1E). [Related pubchem assays: 1429, 485 ]; assay type: functional
[14] = molecular target: Neuropeptide Y receptor type 2 (Homo sapiens, UniProt P49146); assay: NPY-Y2 antagonist potency, selectivity check, dose response, counter-screen for NPY-Y1 antagonist project, cell-based (AID 1278); assay type: functional
Sequence of Neuropeptide Y receptor type 2 (P49146 whole entry): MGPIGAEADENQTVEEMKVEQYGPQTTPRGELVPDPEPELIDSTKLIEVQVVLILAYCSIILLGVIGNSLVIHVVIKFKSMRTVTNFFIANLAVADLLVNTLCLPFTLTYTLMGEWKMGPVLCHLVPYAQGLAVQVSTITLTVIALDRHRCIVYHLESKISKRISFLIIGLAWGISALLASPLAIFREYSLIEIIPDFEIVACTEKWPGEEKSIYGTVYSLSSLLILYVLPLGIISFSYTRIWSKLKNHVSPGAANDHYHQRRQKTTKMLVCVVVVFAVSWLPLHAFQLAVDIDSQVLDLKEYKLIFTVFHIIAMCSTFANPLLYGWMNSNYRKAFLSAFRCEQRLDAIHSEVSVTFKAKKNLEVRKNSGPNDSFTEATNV

[15] = molecular target: Sphingosine 1-phosphate receptor 3 (Homo sapiens, UniProt Q99500); assay: Dose response cell-based high throughput screening assay for antagonists of the Sphingosine 1-Phosphate Receptor 3 (S1P3). [Related pubchem assays: 1429, 485 ]; assay type: functional
Sequence of Sphingosine 1-phosphate receptor 3 (Q99500 whole entry): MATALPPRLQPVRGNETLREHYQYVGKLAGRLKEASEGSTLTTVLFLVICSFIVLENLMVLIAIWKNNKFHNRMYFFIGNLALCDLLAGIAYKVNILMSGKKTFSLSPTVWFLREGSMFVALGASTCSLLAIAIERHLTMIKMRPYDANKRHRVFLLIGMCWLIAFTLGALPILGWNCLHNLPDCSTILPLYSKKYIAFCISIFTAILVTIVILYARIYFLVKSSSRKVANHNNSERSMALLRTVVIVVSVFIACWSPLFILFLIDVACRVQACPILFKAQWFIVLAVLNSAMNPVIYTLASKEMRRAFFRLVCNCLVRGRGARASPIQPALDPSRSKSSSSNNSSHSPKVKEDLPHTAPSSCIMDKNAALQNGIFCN

[16] = molecular target: T2, Bcl-2-related protein A1 (Mus musculus, UniProt Q07440); assay: Bfl-1 binding inhibitors, SAR follow-up, biochemical, fluorescence polarization (AID 1070)
T2 sequence (Q07440 whole entry): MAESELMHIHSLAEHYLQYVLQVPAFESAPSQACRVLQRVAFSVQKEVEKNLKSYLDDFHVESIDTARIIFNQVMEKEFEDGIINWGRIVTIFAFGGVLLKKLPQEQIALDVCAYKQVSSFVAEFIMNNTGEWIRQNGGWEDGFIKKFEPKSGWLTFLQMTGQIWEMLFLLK

[17] = molecular target: T2, Bcl-2-related protein A1; assay: Bfl-1 inhibitors blocking BH3 peptide binding, confirmation, biochemical, TR-FRET, mouse Bfl-1 (AID 621);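 also: TR-FRET binding of GST-Bfl-1 to FITC-labelled Bid peptide via terbium antibody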
[18] = inhibitors of Bluetongue virus cytopathic effect, confirmation, arbovirus, BSR cells (AID 1250); assay type: functional;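 also: protection from viral cytopathic effect measured as cell viability by ATP luminescence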
[19] = molecular target: Troponin, cardiac muscle (Homo sapiens, UniProt P19429+P45379+P63316); assay: Fluorescence-based biochemical high throughput dose response assay for activators of the calcium sensitivity of cardiac Regulated Thin Filaments (RTF). [Related pubchem assays (depositor defined):AID493008, AID493018, AID504382, AID504383]; assay type: protein-complex assay
[20] = molecular target: 14-3-3 protein gamma (Homo sapiens, UniProt P61981); assay: modulators of 14-3-3 gamma client binding – dose response (AID 711); assay type: functional
Sequence of 14-3-3 protein gamma (P61981 whole entry): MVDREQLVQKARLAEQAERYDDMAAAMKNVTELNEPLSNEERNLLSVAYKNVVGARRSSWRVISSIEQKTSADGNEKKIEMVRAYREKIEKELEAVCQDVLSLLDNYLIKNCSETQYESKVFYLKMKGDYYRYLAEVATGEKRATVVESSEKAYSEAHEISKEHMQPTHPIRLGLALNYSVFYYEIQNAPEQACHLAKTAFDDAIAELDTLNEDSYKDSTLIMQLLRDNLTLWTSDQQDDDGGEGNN

[21] = molecular target: Oxytocin receptor (Homo sapiens, UniProt P30559); assay: Fluorescence-based cell-based high throughput dose response assay for potentiators of Oxytocin Receptor (OXTR). [Related pubchem assays: 434985 (Confirmation screen (OXTR potentiators in triplicate)), 2481 (Summary (OXTR potentiators)), 2445 (Primary screen (OXTR potentiators in singlicate))]; assay type: functional
[22] = enhancers of respiration in Yfh1-depleted yeast, dose response, Friedreich's ataxia, plus single-dose screen (AID 1465); assay type: functional;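 also: yeast depleted of Yfh1p frataxin homolog grown on glycerol needing respiration; WST-1 tetrazolium dye reduction as measure of cellular dehydrogenase metabolic activity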
[23] = molecular target: Nonstructural protein 1 (Influenza A virus, UniProt Q194T2); assay type: functional, Influenza A virus (A/California/07/2009(H1N1))
Sequence of Nonstructural protein 1 (Q194T2 whole entry): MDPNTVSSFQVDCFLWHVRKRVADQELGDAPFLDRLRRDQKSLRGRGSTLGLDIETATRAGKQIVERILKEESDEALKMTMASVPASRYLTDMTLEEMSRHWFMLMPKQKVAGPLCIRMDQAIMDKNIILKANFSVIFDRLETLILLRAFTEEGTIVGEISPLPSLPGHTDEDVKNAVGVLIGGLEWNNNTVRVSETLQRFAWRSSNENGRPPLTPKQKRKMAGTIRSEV

[24] = molecular target: T3, Low molecular weight phosphotyrosine protein phosphatase (Homo sapiens, UniProt P24666); assay: LMPTP phosphatase inhibitors, dose response, biochemical, OMFP substrate, fluorescence intensity, set 2 (AID 743307); assay type: functional
T3 sequence (P24666 whole entry): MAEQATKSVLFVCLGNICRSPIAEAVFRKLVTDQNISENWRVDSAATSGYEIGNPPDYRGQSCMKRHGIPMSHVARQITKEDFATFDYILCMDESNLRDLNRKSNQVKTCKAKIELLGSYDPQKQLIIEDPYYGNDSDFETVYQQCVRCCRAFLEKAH

[25] = molecular target: T3, Low molecular weight phosphotyrosine protein phosphatase; assay: LMPTP phosphatase inhibitors, colorimetric pNPP readout, dose response, orthogonal assay, biochemical, absorbance, pNPP substrate, LMPTP-A isoform, set 2 (AID 743308); assay type: functional
[26] = P. falciparum Dd2 growth inhibitors, dose response, SYBR Green, dry powder samples, set 4 (AID 1159572); assay type: functional, cell-based
[27] = HeLa 2N DNA content increase, dose response, cell-based, IC50 (AID 1117349); assay type: functional
[28] = HeLa 4N DNA content increase, dose response, cell-based, IC50 (AID 1117351); assay type: functional
[29] = cytotoxicity toward HT-29 cells – cell-based, CellTiter-Glo luminescence, IC50, dose response (AID 1117330); assay type: functional
[30] = CellTiter-Glo luminescent dose response of DLD-1 viability loss (AID 1117352); assay type: functional
[31] = SNU-C1 cell viability reduction, dose response, CellTiter-Glo luminescence (AID 1117323); assay type: functional, cell-based
[32] = molecular target: Heat shock protein HSP 90-alpha (Homo sapiens, UniProt P07900); assay type: functional, organism-based
[33] = RKO cell viability reduction, dose response, CellTiter-Glo luminescence (AID 1117322); assay type: functional
[34] = cytotoxicity toward HCT116 cells – cell-based, CellTiter-Glo luminescence, IC50, dose response (AID 1117332); assay type: functional; settings: HCT-116
[35] = growth suppression of PTEN-null colon cells, dose response, cell-based, HCT116 PTEN knockout (AID 1047); assay type: functional;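 also: HCT116 colon tumor cells with PTEN knocked out; cells exposed to compound for 60 hours before readout; potency for loss of cell viability measured by luminescence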
[36] = growth suppression of beta-catenin-knockout colon cells, dose response, cell-based, HCT116, human colon tumor (AID 1045); assay type: functional;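 also: HCT116 colon tumor cells with beta catenin knocked out; cells exposed to compound for 60 hours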
[37] = Glucagon-like peptide 1 release potency, NCI-H716 cell line, dose-response, half-maximal inhibitory concentration (AID 1117344); assay type: functional, cell-based
[38] = cytotoxicity toward Colo320 cells – cell-based, CellTiter-Glo luminescence, IC50, dose response (AID 1117334); assay type: functional; settings: COLO 320
[39] = half-maximal inhibitory concentration for glucagon-like peptide-1 release, STC-1 cell line, dose-response (AID 1117345); assay type: functional, cell-based
[40] = Concentration-dependent survival of SW480 colon cancer line, luminescence detection with CellTiter-Glo, half-maximal inhibitory concentration (AID 1117338); assay type: functional

Sequence of Photoreceptor-specific nuclear receptor (Q9Y5X4 whole entry): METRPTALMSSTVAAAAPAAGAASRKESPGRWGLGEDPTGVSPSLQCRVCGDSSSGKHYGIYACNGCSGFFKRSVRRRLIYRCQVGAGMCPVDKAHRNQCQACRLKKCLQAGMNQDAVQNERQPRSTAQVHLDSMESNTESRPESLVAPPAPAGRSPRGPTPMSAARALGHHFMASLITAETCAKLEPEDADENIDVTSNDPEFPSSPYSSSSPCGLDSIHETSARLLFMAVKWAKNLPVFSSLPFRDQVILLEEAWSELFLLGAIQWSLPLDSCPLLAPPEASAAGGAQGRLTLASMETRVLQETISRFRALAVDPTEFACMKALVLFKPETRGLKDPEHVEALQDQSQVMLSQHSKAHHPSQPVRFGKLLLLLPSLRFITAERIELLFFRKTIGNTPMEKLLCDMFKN

## COc1ccc(NC(=O)CSc2nnc(-c3cccs3)n2-c2ccccc2)cc1
[1]
  IC50: 2.09 µM (active)
[2]
  IC50: 2.16 µM (active)

## CCOC(=O)C1=C(Cc2ccc(C)cc2)C(=O)c2ccccc2C1=O
[3]
  EC50: 6.91 µM (active)
[4]
  EC50: 4.1 µM (active)
[5]
  EC50: 6.54 µM (active)
[6]
  IC50: > 128 µM (inactive)

## Cc1nnc(SCC(=O)Nc2ccc(-c3nc4ccccc4s3)cc2)s1
[7]
  IC50: > 55.7 µM (not active)

## c1ccc2c3nc[nH]c(NCC4CCCO4)c-3nc2c1 (configuration not stated)
[8]
  IC50: > 42 µM (not active)

## Cn1nnc(NC(=S)NC(=O)c2ccc(-c3ccc(Br)cc3)o2)n1
[9]
  IC50: > 100 µM (active)

## N#Cc1c(NC(=O)C2CC=CCC2C(=O)O)sc2c1CCCCCC2 (configuration not stated)
[10]
  IC50: > 59.6 µM (not active)
[11]
  IC50: > 73.5 µM (not active)
[12]
  IC50: < 1 µM (active)

## Cc1cc(C(=O)CSc2nc3ccccc3c(=O)n2C)c(C)n1CC1CCCO1 (configuration not stated)
[13]
  IC50: > 50 µM (not active)
[14]
  IC50: > 35 µM (not active)
[15]
  IC50: > 50 µM (not active)

## Clc1ccc(-n2nnc(-c3cccnc3Cl)n2)cn1
[16]
  IC50: > 100 µM (not active)
[17]
  IC50: > 100 µM (not active)

## CCOc1ccc(-n2c(SCC(=O)Nc3cc(OC)c([N+](=O)[O-])cc3C)nc3ccccc32)cc1
[18]
  IC50: 43 µM (active)

## COc1ncnc2c1N=C1CC(C)(C)CC(N)=C1S2
[19]
  EC50: > 7.94 µM (active)
[20]
  IC50: 30 µM (active)

## CCOc1ccc(-c2c(C(=O)N/N=C/c3ccc(Cl)cc3)nnn2-c2nonc2N)cc1
[21]
  EC50: > 29.9 µM (not active)

## COc1cc([N+](=O)[O-])cc(/C=N/NC(=O)c2ccc(C)nc2)c1O
[22]
  EC50: > 100 µM (active)
[3]
  EC50: 2.22 µM (active)
[5]
  EC50: 2.62 µM (active)
[23]
  IC50: 5.49 µM (active)

## c1ccc(-c2cc(SCCCN3CCCCC3)c3ccccc3n2)cc1
[24]
  IC50: 66.9 µM (inactive)
[25]
  IC50: > 80 µM (inactive)

## COc1ccc2c3c([nH]c2c1)[C@H](CO)N(C(C)=O)CC31CCN(C(C)=O)CC1
[26]
  AC50: 16.5 µM (active)

## CC(C)(C)C(=O)OCOP(=O)(COCCn1cnc2c(N)ncnc21)OCOC(=O)C(C)(C)C [ADEFOVIR DIPIVOXIL]
[27]
  IC50: > 10 µM (inactive)
[28]
  IC50: > 10 µM (inactive)

## Oc1ccc(Cl)cc1Cc1cc(Cl)ccc1O [DICHLOROPHEN]
[29]
  IC50: 4.69 µM (active)
[30]
  IC50: 0.862 µM (active)
[31]
  IC50: 0.546 µM (active)
[32]
  AC50: 8 µM (active)
[33]
  IC50: 1.93 µM (active)
[34]
  IC50: 1.55 µM (active)
[35]
  EC50: 15.7 µM (active)
[36]
  EC50: 16.4 µM (active)
[37]
  IC50: 15.6 µM (inactive)
[38]
  IC50: 1.21 µM (active)
[39]
  IC50: > 40 µM (inactive)
[40]
  IC50: 2.5 µM (active)
